Measured values published in US12071430B2 (The Johns Hopkins University, priority 2011, dated 2024).
Like-named read-outs stand apart in the source and are kept apart here.

Columns and labels:
HUVEC = HUVEC proliferation, [3H]-thymidine incorporation assay; format: cell-based, human; conditions: for Proliferation (IC50/IC50 Itra): HUVEC IC50 relative to itraconazole; for IC50: HUVEC, [3H]-thymidine incorporation, unit inferred, values in μM, read-out: Proliferation IC50
Experimental: The inhibitory effects of the new analogs on HUVEC proliferation were measured using a [3H]-thymidine incorporation assay. The log P values, used as an indicator of lipophilicity, were calculated using ALOGPS2.1 software. Aqueous solubility is a key physiochemical property relevant for oral absorption. We determined the solubility of each analog in 0.001 N HCl (pH=3), which represents the acidic human gastric fluid.
HUVEC Culture and Proliferation Assays. HUVEC (Lonza) were grown in EGM-2 bullet kit media (Lonza) and used at passage eight or lower. The H thymidine incorporation assays were conducted as previously described. Briefly, cells were seeded on 96-well plate at a concentration of 2000 cells/well and allowed to settle overnight. Drugs were added to each well in triplicate. After 24 hours, cells were treated with 1 μCi of [3H] thymidine for 6 h. Then cells were harvested and transferred to filtermats. The scintillation were counted and IC50 were determined using Prism software (version 6.0).

CYP3A4 = target: T1, CYP3A4 (Homo sapiens, UniProt P08684); experiment: CYP3A4 enzyme assay (Vivid CYP3A4 Green Screening Kit); format: in vitro ADME; conditions: for CYP3A4 Inhibition (compared to intracozanole at 1 um): % enzyme inhibition at 1 uM drug / % enzyme inhibition at 1 uM itraconazole; for CYP3A4 inhibition, in words: dose response or compared with itraconazole
T1 construct: purchased ThermoFisher P2857; host or cells: baculosomes (insect-cell microsomes, own knowledge)
Experimental: And CYP3A4 inhibition was initially determined using a cell-free fluorescence-based assay at a final concentration of 1 μM (Table 2).
CYP3A4 enzyme assay. CYP3A4 enzyme activity was tested using Vivid™ CYP3A4 Green Screening Kit (ThermoFisher, #P2857) using the manufacturer's protocol. Briefly, CYP3A4 baculosomes and drugs were incubated 10 min at 37° C. Then Vivid® Substrates were added and the fluorescence (ex/em:485/520) were read every 1 min for 60 minute.

T1 sequence (P08684 whole entry): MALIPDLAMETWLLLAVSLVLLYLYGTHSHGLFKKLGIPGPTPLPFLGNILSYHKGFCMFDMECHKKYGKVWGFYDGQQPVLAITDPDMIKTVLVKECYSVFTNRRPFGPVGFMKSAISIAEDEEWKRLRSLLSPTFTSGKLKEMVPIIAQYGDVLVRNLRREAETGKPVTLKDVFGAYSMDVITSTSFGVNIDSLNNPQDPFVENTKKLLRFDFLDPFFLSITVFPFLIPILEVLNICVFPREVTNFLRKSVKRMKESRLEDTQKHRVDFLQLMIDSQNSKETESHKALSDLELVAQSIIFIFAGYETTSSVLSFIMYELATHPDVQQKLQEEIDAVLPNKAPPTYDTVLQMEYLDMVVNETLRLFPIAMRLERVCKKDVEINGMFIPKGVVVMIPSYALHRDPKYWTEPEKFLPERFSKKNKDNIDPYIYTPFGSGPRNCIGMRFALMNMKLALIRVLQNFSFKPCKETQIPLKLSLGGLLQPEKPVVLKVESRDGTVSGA

Compound	Proliferation (IC50/IC50 Itra) (HUVEC)	CYP3A4 Inhibition (compared to intracozanole at 1 um) (CYP3A4)	IC50 (HUVEC; Homo sapiens) [µM]	CYP3A4 inhibition, in words (CYP3A4)	IC50 (HUVEC) [µM]	CYP3A4 inhibition at 1 μM, in words (CYP3A4; initial screening at 1 μM)
CCC(C)n1ncn(-c2ccc(N3CCN(c4ccc(OC[C@@H]5CO[C@@](Cn6cnc(C)c6)(c6ccc(Cl)cc6Cl)O5)cc4)CC3)cc2)c1=O (stereo partly drawn) [Compound 38, 1-sec-butyl-4-(4-(4-(4-(((2S,4R)-2-(2,4-dichlorophenyl)-2-((4-methyl-1H-imidazol-1-yl)methyl)-1,3-dioxolan-4-yl)methoxy)phenyl)piperazin-1-yl)phenyl)-1H-1,2,4-triazol-5(4H)-one]	0.6	1.18	–	–	–	–
CCC(C)n1ncn(-c2ccc(N3CCN(c4ccc(OC[C@@H]5CO[C@@](Cn6c(C)cnc6C)(c6ccc(Cl)cc6Cl)O5)cc4)CC3)cc2)c1=O (stereo partly drawn) [Compound 41, 1-(sec-butyl)-4-(4-(4-(4-(((2S,4R)-2-(2,4-dichlorophenyl)-2-((2,5-dimethyl-1H-imidazol-1-yl)methyl)-1,3-dioxolan-4-yl)methoxy)phenyl)piperazin-1-yl)phenyl)-1H-1,2,4-triazol-5(4H)-one]	4.5	0.27	0.765	–	–	–
CCC(C)n1ncn(-c2ccc(N3CCN(c4ccc(OC[C@@H]5CO[C@@](Cn6cnc(C)n6)(c6ccc(Cl)cc6Cl)O5)cc4)CC3)cc2)c1=O (stereo partly drawn) [Compound 50, 1-sec-butyl-4-(4-(4-(4-(((2S,4R)-2-(2,4-dichlorophenyl)-2-((3-methyl-1H-1,2,4-triazol-1-yl)methyl)-1,3-dioxolan-4-yl)methoxy)phenyl)piperazin-1-yl)phenyl)-1H-1,2,4-triazol-5(4H)-one]	1.6	0.36	–	reduced potency	–	–
CCC(C)n1ncn(-c2ccc(N3CCN(c4ccc(OC[C@@H]5CO[C@@](Cn6ncnn6)(c6ccc(Cl)cc6Cl)O5)cc4)CC3)cc2)c1=O (stereo partly drawn) [Compound 49, 4-(4-(4-(4-(((2S,4R)-2-((2H-tetrazol-2-yl)methyl)-2-(2,4-dichlorophenyl)-1,3-dioxolan-4-yl)methoxy)phenyl)piperazin-1-yl)phenyl)-1-sec-butyl-1H-1,2,4-triazol-5(4H)-one]	0.7	0.2	0.124	–	–	–
CCC(C)n1ncn(-c2ccc(N3CCN(c4ccc(OC[C@@H]5CO[C@@](Cn6ccnc6C)(c6ccc(Cl)cc6Cl)O5)cc4)CC3)cc2)c1=O (stereo partly drawn) [Compound 35, 1-sec-butyl-4-(4-(4-(4-(((2S,4R)-2-(2,4-dichlorophenyl)-2-((2-methyl-1H-imidazol-1-yl)methyl)-1,3-dioxolan-4-yl)methoxy)phenyl)piperazin-1-yl)phenyl)-1H-1,2,4-triazol-5(4H)-one]	1.0	0.85	–	–	–	–
CCc1nccn1C[C@@]1(c2ccc(Cl)cc2Cl)OC[C@@H](COc2ccc(N3CCN(c4ccc(-n5cnn(C(C)CC)c5=O)cc4)CC3)cc2)O1 (stereo partly drawn) [Compound 43, 1-(sec-butyl)-4-(4-(4-(4-(((2S,4R)-2-(2,4-dichlorophenyl)-2-((2-ethyl-1H-imidazol-1-yl)methyl)-1,3-dioxolan-4-yl)methoxy)phenyl)piperazin-1-yl)phenyl)-1H-1,2,4-triazol-5(4H)-one]	1.4	0.08	–	–	–	–
CCC(C)n1ncn(-c2ccc(N3CCN(c4ccc(OC[C@@H]5CO[C@@](CC)(c6ccc(Cl)cc6Cl)O5)cc4)CC3)cc2)c1=O (stereo partly drawn) [Compound 59, 1-sec-butyl-4-(4-(4-(4-(((2R,4R)-2-(2,4-dichlorophenyl)-2-ethyl-1,3-dioxolan-4-yl)methoxy)phenyl)piperazin-1-yl)phenyl)-1H-1,2,4-triazol-5(4H)-one]	2.1	No inhibition	–	totally lost CYP3A4 inhibition	–	–
CCC(C)n1ncn(-c2ccc(N3CCN(c4ccc(OC[C@@H]5CO[C@@](CN6CCOCC6)(c6ccc(Cl)cc6Cl)O5)cc4)CC3)cc2)c1=O (stereo partly drawn) [Compound 63, 1-(sec-butyl)-4-(4-(4-(4-(((2S,4R)-2-(2,4-dichlorophenyl)-2-(morpholinomethyl)-1,3-dioxolan-4-yl)methoxy)phenyl)piperazin-1-yl)phenyl)-1H-1,2,4-triazol-5(4H)-one]	7.4	0.20	–	–	–	–
CCC(C)n1ncn(-c2ccc(N3CCN(c4ccc(OC[C@@H]5CO[C@@](Cn6nc(C)nc6C)(c6ccc(Cl)cc6Cl)O5)cc4)CC3)cc2)c1=O (stereo partly drawn) [Compound 47, 1-sec-butyl-4-(4-(4-(4-(((2S,4R)-2-(2,4-dichlorophenyl)-2-((3,5-dimethyl-1H-1,2,4-triazol-1-yl)methyl)-1,3-dioxolan-4-yl)methoxy)phenyl)piperazin-1-yl)phenyl)-1H-1,2,4-triazol-5(4H)-one]	1.3	0.32	0.22	weak inhibition	0.221	no CYP3A4 inhibition
CCC(C)n1ncn(-c2ccc(N3CCN(c4ccc(OC[C@@H]5CO[C@@](CN6CCNCC6)(c6ccc(Cl)cc6Cl)O5)cc4)CC3)cc2)c1=O (stereo partly drawn) [Compound 66, 1-(sec-butyl)-4-(4-(4-(4-(((2S,4R)-2-(2,4-dichlorophenyl)-2-(piperazin-1-ylmethyl)-1,3-dioxolan-4-yl)methoxy)phenyl)piperazin-1-yl)phenyl)-1H-1,2,4-triazol-5(4H)-one]	2.5	1.09	–	–	–	–
CCC(C)n1ncn(-c2ccc(N3CCN(c4ccc(OC[C@@H]5CO[C@@](Cn6ccnc6C(C)C)(c6ccc(Cl)cc6Cl)O5)cc4)CC3)cc2)c1=O (stereo partly drawn) [Compound 45, 1-sec-butyl-4-(4-(4-(4-(((2S,4R)-2-(2,4-dichlorophenyl)-2-((2-isopropyl-1H-imidazol-1-yl)methyl)-1,3-dioxolan-4-yl)methoxy)phenyl)piperazin-1-yl)phenyl)-1H-1,2,4-triazol-5(4H)-one]	0.5	0.07	0.084	–	–	–
CCC(C)n1ncn(-c2ccc(N3CCN(c4ccc(OC[C@@H]5CO[C@@](CN6CCN(C)CC6)(c6ccc(Cl)cc6Cl)O5)cc4)CC3)cc2)c1=O (stereo partly drawn) [Compound 65, 1-(sec-butyl)-4-(4-(4-(4-(((2S,4R)-2-(2,4-dichlorophenyl)-2-((4-methylpiperazin-1-yl)methyl)-1,3-dioxolan-4-yl)methoxy)phenyl)piperazin-1-yl)phenyl)-1H-1,2,4-triazol-5(4H)-one]	3.8	0.21	–	–	–	–
